Assay results as given in ChEMBL document CHEMBL5360657, “Discovery of the TLR7/8 Antagonist MHV370 for Treatment of Systemic Autoimmune Diseases” (ACS Med Chem Lett, 2023).

Experiments:
[1] = AUC in mouse at 1 mg/ml, po; type: ADME; design: dose 1 mg/ml, route po; conditions: in vivo
[2] = Cmax in rat at 1 mg/ml, po; type: ADME; design: dose 1 mg/ml, route po; conditions: in vivo
[3] = Oral bioavailability in mouse at 1 mg/ml; type: ADME, organism-based; conditions: in vivo
[4] = Cmax in mouse at 1 mg/ml, po; type: ADME; design: dose 1 mg/ml, route po; conditions: in vivo
Toll-like receptor 7 [5] = target: T1, Toll-like receptor 7 (Homo sapiens, UniProt Q9NYK1); test: Antagonist activity at TLR7 in human PBMC cells assessed as reduction in IFN alpha measured after 20 hrs by AlphaLISA assay; type: cell-based
T1 sequence (Q9NYK1 whole entry): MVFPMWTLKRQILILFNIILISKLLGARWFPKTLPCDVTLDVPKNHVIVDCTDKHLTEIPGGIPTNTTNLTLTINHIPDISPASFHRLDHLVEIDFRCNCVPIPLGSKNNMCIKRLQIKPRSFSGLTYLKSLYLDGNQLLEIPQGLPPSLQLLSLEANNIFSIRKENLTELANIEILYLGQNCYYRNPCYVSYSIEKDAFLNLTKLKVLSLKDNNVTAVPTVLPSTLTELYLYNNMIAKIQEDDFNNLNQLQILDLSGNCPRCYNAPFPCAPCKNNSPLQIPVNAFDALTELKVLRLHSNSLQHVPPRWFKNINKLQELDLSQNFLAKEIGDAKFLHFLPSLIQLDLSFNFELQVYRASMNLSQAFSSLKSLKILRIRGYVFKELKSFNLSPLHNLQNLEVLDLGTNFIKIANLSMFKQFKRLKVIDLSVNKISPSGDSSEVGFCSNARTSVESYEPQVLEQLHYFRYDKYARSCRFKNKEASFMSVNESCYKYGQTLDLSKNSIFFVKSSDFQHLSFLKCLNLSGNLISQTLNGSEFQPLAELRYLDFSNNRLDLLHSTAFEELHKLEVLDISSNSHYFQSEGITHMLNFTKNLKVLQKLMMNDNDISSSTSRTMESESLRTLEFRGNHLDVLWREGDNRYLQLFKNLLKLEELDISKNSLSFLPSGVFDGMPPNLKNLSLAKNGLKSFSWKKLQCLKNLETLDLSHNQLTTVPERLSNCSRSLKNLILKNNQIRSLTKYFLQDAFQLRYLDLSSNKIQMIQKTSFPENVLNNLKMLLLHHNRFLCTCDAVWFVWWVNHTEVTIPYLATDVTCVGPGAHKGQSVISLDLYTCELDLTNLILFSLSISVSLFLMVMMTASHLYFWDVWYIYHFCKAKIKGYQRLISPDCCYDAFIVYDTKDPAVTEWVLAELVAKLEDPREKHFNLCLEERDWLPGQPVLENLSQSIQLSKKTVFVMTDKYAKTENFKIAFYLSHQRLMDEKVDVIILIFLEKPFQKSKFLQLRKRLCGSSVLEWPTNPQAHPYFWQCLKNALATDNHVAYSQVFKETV

[6] = Volume of distribution at steady state in mouse at 1 mg/ml, po or iv; type: ADME, organism-based; conditions: in vivo
[7] = MRT in mouse at 1 mg/ml, po or iv; type: ADME, organism-based; conditions: in vivo
[8] = MRT in rat at 1 mg/ml, po or iv; type: ADME, organism-based; conditions: in vivo
[9] = AUC in rat at 1 mg/ml, iv; type: ADME; design: dose 1 mg/ml, route iv; conditions: in vivo
[10] = Oral bioavailability in rat at 1 mg/ml; type: ADME, organism-based; conditions: in vivo
[11] = AUC in mouse at 1 mg/ml, iv; type: ADME; design: dose 1 mg/ml, route iv; conditions: in vivo
[12] = Volume of distribution at steady state in rat at 1 mg/ml, po or iv; type: ADME, organism-based; conditions: in vivo
[13] = AUC in mouse at 3 mg/kg, iv; type: ADME, organism-based; design: dose 3 mg/kg, route iv; conditions: in vivo
[14] = AUC in mouse at 20 mg/kg, po; type: ADME, organism-based; design: dose 20 mg/kg, route po; conditions: in vivo
Toll-like receptor 7 [15] = target: T2, Toll-like receptor 7 (Mus musculus, UniProt P58681); test: Antagonist activity at TLR7 in mouse Splenocyte assessed as reduction in IFN-alpha level measured after 20 hrs by Spectramax M5 method; type: cell-based
T2 sequence (P58681 whole entry): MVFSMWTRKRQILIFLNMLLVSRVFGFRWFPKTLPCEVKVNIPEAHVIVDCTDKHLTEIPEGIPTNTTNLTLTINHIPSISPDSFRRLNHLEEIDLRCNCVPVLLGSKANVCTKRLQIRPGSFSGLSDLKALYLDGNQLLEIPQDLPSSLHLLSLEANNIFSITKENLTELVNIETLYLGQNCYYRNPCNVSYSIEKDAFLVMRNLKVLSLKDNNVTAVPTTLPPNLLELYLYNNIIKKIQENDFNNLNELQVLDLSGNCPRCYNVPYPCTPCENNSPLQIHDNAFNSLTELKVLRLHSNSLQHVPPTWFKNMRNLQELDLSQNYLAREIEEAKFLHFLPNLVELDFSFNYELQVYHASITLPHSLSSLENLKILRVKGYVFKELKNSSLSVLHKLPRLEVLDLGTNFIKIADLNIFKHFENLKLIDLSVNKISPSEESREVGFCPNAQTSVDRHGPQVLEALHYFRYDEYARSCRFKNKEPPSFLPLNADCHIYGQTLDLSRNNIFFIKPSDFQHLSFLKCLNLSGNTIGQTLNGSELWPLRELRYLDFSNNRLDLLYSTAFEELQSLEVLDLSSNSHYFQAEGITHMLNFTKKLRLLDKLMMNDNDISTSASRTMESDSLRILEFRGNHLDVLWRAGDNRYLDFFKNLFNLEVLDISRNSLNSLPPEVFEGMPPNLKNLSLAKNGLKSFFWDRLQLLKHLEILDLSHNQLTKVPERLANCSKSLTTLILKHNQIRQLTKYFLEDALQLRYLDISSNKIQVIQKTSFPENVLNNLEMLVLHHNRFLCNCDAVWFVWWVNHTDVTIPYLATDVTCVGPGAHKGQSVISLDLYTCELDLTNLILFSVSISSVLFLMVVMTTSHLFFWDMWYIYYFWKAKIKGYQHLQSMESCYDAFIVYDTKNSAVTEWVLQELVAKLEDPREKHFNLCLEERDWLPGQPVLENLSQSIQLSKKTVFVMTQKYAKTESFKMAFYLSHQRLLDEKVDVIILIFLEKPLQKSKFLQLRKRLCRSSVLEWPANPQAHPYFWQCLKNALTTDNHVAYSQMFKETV

[16] = target: Toll-like receptor 7 (Mus musculus) (UniProt P58681); test: In vivo antagonist activity against TLR7 in mouse assessed as suppression of IFN alpha level at 1 mg/kg, po measured at 3 hrs by LC-MS/MS analysis

IC50 (Toll-like receptor 7 [5]) | AUC [13] | AUC [14] | SMILES | AUC [1] | Cmax [2] | bioavailability [3] | Cmax [4] | Vdss [6] | MRT [7] | MRT [8] | AUC [9] | bioavailability [10] | AUC [11] | Vdss [12] | IC50 (Toll-like receptor 7 [15]) | Activity [16]
17 nM |  |  | CCNCC(=O)NC12CCC(Cn3nc(C)c4c3CCN(c3cc(C)nc5c3cnn5C)C4)(CC1)CC2 | 4.63 µM·h | 48 nM | 10% | 515 nM | 1 L/kg | 2.4 h | 2.8 h | 1.78 µM·h | 12% | 9.28 µM·h | 3 L/kg |  | 
20 nM | 5.005 µM·h | 1.15 µM·h | Cc1cc(N2CCc3c(c(C)nn3CC34CCC(N)(CC3)CC4)C2)c2cnn(C)c2n1 |  |  |  |  |  |  |  |  |  |  |  | 74 nM | 
 |  |  | Cc1cc(N2CCc3c(c(C)nn3CC34CCC(NC(=O)[C@@H]5COCCN5)(CC3)CC4)C2)c2cnn(C)c2n1 [MHV-370] | 9.16 µM·h | 282 nM | 32% | 1860 nM | 0.7 L/kg | 1 h | 1.2 h | 1.78 µM·h | 52% | 5.67 µM·h | 1.3 L/kg | 9 nM | 25 ng/mL
